Assay results taken from patent publication US20220023317A1, “PREVENTING OR MITIGATING CHEMOTHERAPY INDUCED ALOPECIA USING VITAMIN D” (Berg LLC, priority 2013, published 2022).

Assays:
Sprague Dawley rats = test: PCA model, hair regrowth in alopecic rats; type: in vivo, rat; conditions: 0.2 μg topical days 22-35, rats alopecic from cyclophosphamide or etoposide; controls day 42
Experimental: Topical application of 1,25(OH)2D3. 1,25(OH)2D3 was dissolved in absolute ethanol and applied topically with an applicator. Control animals were similarly treated with vehicle only. […] For CIA experiments, 1,25(OH)2D3 was given daily beginning on day 5 after birth and ending on day 10. […] For CIA and PCA, the experimental group was treated with 0.2 μg of 1,25(OH)2D3 in 150 μL of absolute ethanol applied topically over the head and neck. In both instances, the control group received ethanol vehicle only. Cyclophosphamide (35 mg/kg) was given intraperitoneally for one day only. […] Both chemotherapies were started at 11 days of age. Alopecia was recorded on the tenth day after the first dose of chemotherapy. […] Rats were randomized into two groups of ten rats each. One group received vehicle control, while the other received 0.2 μg 1,25(OH)2D3. […] Animals were observed until complete hair regrowth was obtained.

SKMEL-28 = test: Cell growth / viability assay; type: cell-based
HEKa cells [1] = test: 2-D gel electrophoresis proteomic analysis of calcitriol-treated HEKa; type: cell-based, human; conditions: 0.1 μg/mL
Experimental: The cell pellets were then analyzed using proteomic methods, such as 2-D gel and Western blot analysis. […] In all, analysis of about 458 protein spots in the comparative study was performed, comparing the control sample against the 3-, 6-, and 24-hour treatment samples. Six spots showing statistically significant differential changes were identified. These spots were excised, and their protein contents subjected to sequence identification by trypsin digestion and mass spectrometry characterization.

[2] = system: MIAC51 (chloroleukemia cells); test: Rats transplanted with chloroleukemia MIAC51, CTX with topical calcitriol; type: in vivo, rat; conditions: cyclophosphamide, preliminary results
Experimental: For experiments in which rats were transplanted with chloroleukemia, on Day 5 after birth, rats were randomly divided into three groups of 45 each. All rats received 1×10^5 chloroleukemic cell line MIAC51 (i.p.) in 0.1 mL of serum free (SF) RPMI. MIAC51 were cultured in RPMI 1640 supplemented with L-glutamine and 10% fetal bovine serum at 37° C. in a 5% CO2, 100% humidity incubator. Cells were grown to 50% confluency (1.5×106 mL) collected in 50 mL conical tubes, centrifuged at 600 g×10 min. at room temperature and resuspended in SF-RPMI at a concentration of 1×10^6/mL. Group 1 rats received no further treatment. Group 2 rats received topical vehicle and CTX on day 13. […] Topical applications were performed as described above.
On day 23 after birth, a sample of blood was taken from all rats and differentials performed. Rats with leukemia were sacrificed, rats without leukemia were kept and a second differential performed on day 31, at any point if leukemia was detected, animals were sacrificed by CO2 asphyxiation.

[3] = system: squamous cell carcinoma and human prostate cell carcinoma; conditions: 2.5 μg calcitriol 3 doses daily for 3 days, followed by paclitaxel; cited from earlier work
[4] = system: female C57BL/6 adolescent mice; conditions: topical calcitriol; cited from earlier work
HEKa cells [5] = test: Real-time PCR Neuroscience and Ion Channels array, calcitriol-treated HEKa; type: cell-based, human; conditions: 0.1 μg/mL; for KCNB2 mRNA regulation pattern: full cell: upregulated until 24 hours
Experimental: Changes in mRNA levels were evaluated using real-time PCR quantification to assess mRNA levels in preselected subsets containing 80 pathway specific targets (see Appendix). The PCR array analysis utilized two groups of genes—those related to Heat Shock Proteins (SABiosciences), and those related to Neuroscience Ion Channels and Transporters (SABioscience). Cell culture: Primary human epidermal keratinocytes (HEKa) were maintained in Epilife Medium (Cascade Biologics, Inc., Portland Oreg.) along with Human Keratinocyte Growth Supplement (Cascade Biologics, Inc., Portland Oreg.). […] D3 treatment of HEKa cells: […] Vehicle control group of cells were treated with 5 mL media containing 1 μL of ethanol. Cells were harvested 3, 6, 16, 24, 48, or 72 hours after the start of the treatment. RNA isolation: Cells were lysed for RNA isolation at different treatment times using the RNeasy Mini kit (Qiagen, Inc., Valencia Calif.) following the manufacturer's instructions. RNA was quantified by measuring optical density at 260 nm. First Strand Synthesis: […] Real-time PCR: Products from the first strand synthesis were diluted with water, mixed with the SYBR green master mix (SABiosciences., Frederick Md.) and loaded onto PCR arrays. Real time PCR was run on the PCR Arrays (Heat Shock Protein Arrays, and Neuroscience and Ion Channel Arrays) (SABiosciences, Frederick Md.) on a Biorad CFX96. Data analyses were performed using the PCR array data analysis software available on the SABiosciences website.

HEKa cells [6] = test: Protection of HEKa cells by calcitriol against chemotherapeutic drugs; type: cell-based, human
Experimental: These include: erlotinib (Tarceva), an EGFR Tyr kinase inhibitor; gefutubib (Iressa), an EGFR Tyr kinase inhibitor; sorafenib, inhibitor of several Tyr kinases (Raf, VEGF-R2, c-kit, PDGR-R); Dasatinib, a BCR/ABL Tyr kinase inhibitor; and staurosporin, a relatively nonspecific kinase inhibitor.
The drug treatment period was usually three days. At the end of the three days, the background OD of the 96-well plate was read at 280 nm, before 20 μL of the “Substrate Cell Titer 96 Aqueous One Solution Reagent” (Promega) was added to each well. The plate was returned to the 37° C. incubator, and its OD at 490 nm was read each hour until an OD of approximately 1.5 was reached. The net OD increase was calculated by subtracting the pre-substrate OD reading.
The impact of the drug on the cells was calculated by comparing the OD at different concentrations in relation to the OD of the control wells (without the drug).

For `C=C1/C(=C\C=C2/CCC[C@]3(C)[C@@H]([C@H](C)CCCC(C)(C)O)CC[C@@H]23)C[C@@H](O)C[C@@H]1O` [Calcitriol, (1a.3B.5Z.7E)-9,10-secocholesta-5,7,10(19)-triene-1,3,25-triol], the “day of total body hair regrowth” value (Sprague Dawley rats) was 50 days, the “effect of calcitriol on cell growth” value (SKMEL-28) was “no significant growth promoting or growth inhibiting effects” and the “effect of calcitriol on cytotoxic effect of Doxorubicin” value (SKMEL-28) was “did not appear to appreciably alter”. For the same compound, the “5-FU ED50 curve with vs without calcitriol” value (SKMEL-28; 0.1 μg/mL calcitriol supplement) was “not significantly different”, the “S100 A9 (Calprotectin) Response” value (HEKa cells [1]; full cell: down at 6 and 24 hours) was “down at 6” and the “Keratin 17 Response” value (HEKa cells [1]; full cell: down at 24 hours) was “down at”. For the same compound, the “Glutathione S-transferase (GST) Response” value (HEKa cells [1]; full cell: up at 3, 6, and 24 hours) was “up at 3, 6,”, the “protection of the cancer cells from chemotherapy” value [2] was “have not shown protection of the cancer cells” and the tumor response [3] was “significant tumor regression”. For the same compound, the “prevention of cyclophosphamide-induced alopecia” value [4] was “failed to demonstrate efficacy”, the “regrowth of pigmented hair shafts” value [4] was “significantly accelerated, enhanced, and quantitatively improved” and the “SLC1A3 mRNA regulation pattern” value (HEKa cells [5]; full cell: downregulated at 48 hours) was “downregulated”. For the same compound, the “SLC1A1 mRNA regulation pattern” value (HEKa cells [5]; full cell: upregulated at 16 hrs) was “upregulated”, the “KCNN4 mRNA regulation pattern” value (HEKa cells [5]; full cell: upregulated at 48 hours) was “upregulated” and the “KCNB2 mRNA regulation pattern” value (HEKa cells [5]) was “upregulated at about 24 hours”. The “KCNB2 mRNA regulation pattern” value (HEKa cells [5]; listed as Vitamin D3) was “upregulated”, the “protective effect against 5-FU” value (HEKa cells [6]; 0.1 μg/mL calcitriol) was “mild protective effect” and the “protective effect against doxorubicin” value (HEKa cells [6]; 0.1 μg/mL calcitriol) was “did not appear to provide a significant protective effect”. For the same compound, the “protective effect against gemcitabine” value (HEKa cells [6]; 0.1 μg/mL calcitriol) was “mild protective effect”, the “protective effect against irinotecan” value (HEKa cells [6]; 0.1 μg/mL calcitriol) was “positive protective effect” and the “protective effect against paclitaxel” value (HEKa cells [6]; 0.1 μg/mL calcitriol) was “some protective effects”. For the same compound, the “protective effect against tamoxifen” value (HEKa cells [6]; 0.1 μg/mL calcitriol) was “weak”, the “interaction (synergy) between calcitriol and drugs tested” value (HEKa cells [6]; 0.1 μg/mL calcitriol premixed with 15 drugs, three days) was “no interaction” and the “protection against alkylating agents cisplatin and carboplatin” value (HEKa cells [6]; 0.1 μg/mL calcitriol, low dosage levels) was “moderate level of protection”. For the same compound, the “protective effect against kinase inhibitor drugs” value (HEKa cells [6]; 0.1 μg/mL calcitriol, erlotinib, gefitinib, sorafenib, dasatinib, staurosporin at low drug dosage) was “provided certain growth stimulation and protected the HEKa cells”.
